Source: patent publication US10981891B2, “Antibacterial compounds and uses thereof” (priority 2016, dated 2021)
Converted amounts (≈) assume the structure as drawn.

Tested on: M. tuberculosis H37Rv (ATCC 27294)
Assay: Microplate Alamar Blue assay (MABA), MIC against replicating M. tuberculosis H37Rv
Type: cell-based
Details: Mycobacterium tuberculosis, 168 h, read-out: M. tuberculosis MIC

| Structure (SMILES) | MIC [µg/mL] |
| --- | --- |
| COc1nc2ccc(Br)cc2cc1C(c1ccnc(OC)c1OC)C(O)(CCN(C)C)c1cc2ccccc2o1 (stereo not drawn) [Example 7, 2-(Benzofuran-2-yl)-1-(6-bromo-2-methoxyquinolin-3-yl)-1-(2,3-dimethoxypyridin-4-yl)-4-(dimethylamino)butan-2-ol] | 0.03 (≈ 0.0495 µM) |

Same assay, conditions: Mycobacterium tuberculosis, 168 h; H37Rv, MABA, 7H12 media, 7 days at 37° C.; MIC = lowest concentration reducing fluorescence by 90% relative to controls; read-out: M. tuberculosis MIC

| Structure (SMILES) | MIC [µg/mL] |
| --- | --- |
| COc1cc(C(O)(CCN(C)C)C(c2ccc(C)s2)c2cc3cc(Br)ccc3nc2OC)cc(OC)n1 (stereo not drawn) [Example 11, 1-(6-Bromo-2-methoxyquinolin-3-yl)-2-(2,6-dimethoxypyridin-4-yl)-4-(dimethylamino)-1-(5-methylthiophen-2-yl)butan-2-ol] | < 0.02 |
| COc1nc2ccc(C#N)cc2cc1C(c1cccc(F)c1)C(O)(CCN(C)C)c1cccc2ccoc12 (stereo not drawn) [Example 74, 3-(2-(Benzofuran-7-yl)-4-(dimethylamino)-1-(3-fluorophenyl)-2-hydroxybutyl)-2-methoxyquinoline-6-carbonitrile] | 0.04 (≈ 0.0785 µM) |
| COc1cc(C(O)(CCN(C)C)C(c2cc3cc(Br)ccc3nc2OC)c2cccc(OC)c2F)cc(OC(F)F)n1 (stereo not drawn) [Example 49, 1-(6-Bromo-2-methoxyquinolin-3-yl)-2-(2-(difluoromethoxy)-6-methoxypyridin-4-yl)-4-(dimethylamino)-1-(2-fluoro-3-methoxyphenyl)butan-2-ol] | 0.04 (≈ 0.0615 µM) |
| COc1cc(C(O)(CCN(C)C)C(c2cccc(F)c2)c2cc3cc(C#N)ccc3nc2OC)cc(OC)n1 (stereo not drawn) [Example 80, 3-(2-(2,6-Dimethoxypyridin-4-yl)-4-(dimethylamino)-1-(3-fluorophenyl)-2-hydroxybutyl)-2-methoxyquinoline-6-carbonitrile] | 0.03 (≈ 0.0565 µM) |
| COc1cc(C(O)(CCN(C)C)C(c2cc3cc(Br)ccc3nc2OC)c2ccnc(OC)c2OC)cc(OC2CCC2)n1 (stereo not drawn) [Example 30, 1-(6-Bromo-2-methoxyquinolin-3-yl)-2-(2-cyclobutoxy-6-methoxypyridin-4-yl)-1-(2,3-dimethoxypyridin-4-yl)-4-(dimethylamino)butan-2-ol] | < 0.004 |
| COc1cc(C(O)(CCN(C)C)C(c2cc3cc(C#N)ccc3nc2OC)c2cccc3c2OCCO3)cc(OC(F)F)n1 (stereo not drawn) [Example 91, 3-(2-(2-(Difluoromethoxy)-6-methoxypyridin-4-yl)-1-(2,3-dihydrobenzo[b][1,4]dioxin-5-yl)-4-(dimethylamino)-2-hydroxybutyl)-2-methoxyquinoline-6-carbonitrile] | 0.02 (≈ 0.033 µM) |
| CNCCC(O)(c1cc(OC)nc(OC)c1)C(c1ccc(C)s1)c1cc2cc(C#N)ccc2nc1OC (stereo not drawn) [Example 78, 3-(2-(2,6-Dimethoxypyridin-4-yl)-2-hydroxy-4-(methylamino)-1-(5-methylthiophen-2-yl)butyl)-2-methoxyquinoline-6-carbonitrile] | 0.09 (≈ 0.174 µM) |
| CCSc1cc(C(O)(CCN(C)C)C(c2cc3cc(Br)ccc3nc2OC)c2cccc(OC)c2F)cc(SCC)n1 (stereo not drawn) [Example 44, 2-(2,6-Bis(ethylthio)pyridin-4-yl)-1-(6-bromo-2-methoxyquinolin-3-yl)-4-(dimethylamino)-1-(2-fluoro-3-methoxyphenyl)butan-2-ol] | < 0.02 |
| COc1cccc(C(c2cc3cc(Br)ccc3nc2OC)C(O)(CCN(C)C)c2cc(SC)nc(SC)c2)c1F (stereo not drawn) [Example 45, 2-(2,6-Bis(methylthio)pyridin-4-yl)-1-(6-bromo-2-methoxyquinolin-3-yl)-4-(dimethylamino)-1-(2-fluoro-3-methoxyphenyl)butan-2-ol] | < 0.02 |
| COc1cc(C(O)(CCN(C)C)C(c2cccc(F)c2)c2cc3cc(Br)ccc3nc2OC)cc(OC)n1 (stereo not drawn) [Example 39, 1-(6-Bromo-2-methoxyquinolin-3-yl)-2-(2,6-dimethoxypyridin-4-yl)-4-(dimethylamino)-1-(3-fluorophenyl)butan-2-ol] | < 0.02 |
| COc1cc(C(O)(CCN(C)C)C(c2ccccc2)c2cc3cc(I)ccc3nc2OC)cc(OC)n1 (stereo not drawn) [Example 42, 2-(2,6-Dimethoxypyridin-4-yl)-4-(dimethylamino)-1-(6-iodo-2-methoxyquinolin-3-yl)-1-phenylbutan-2-ol] | < 0.02 |
| COc1cc(C(O)(CCN(C)C)C(c2cc3cc(C#N)ccc3nc2OC)c2cccc(OC)c2F)cc(SC)n1 (stereo not drawn) [Example 87, 3-(4-(Dimethylamino)-1-(2-fluoro-3-methoxyphenyl)-2-hydroxy-2-(2-methoxy-6-(methylthio)pyridin-4-yl)butyl)-2-methoxyquinoline-6-carbonitrile] | 0.02 (≈ 0.0347 µM) |
| COc1cc(C(O)(CCN(C)C)C(c2cc3cc(C#N)ccc3nc2OC)c2cccc(OC)c2F)cc(OC(F)F)n1 (stereo not drawn) [Example 82, 3-(2-(2-(Difluoromethoxy)-6-methoxypyridin-4-yl)-4-(dimethylamino)-1-(2-fluoro-3-methoxyphenyl)-2-hydroxybutyl)-2-methoxyquinoline-6-carbonitrile] | < 0.02 |
| CCOc1cc(C(O)(CCN(C)C)C(c2cccc(C)c2)c2cc3cc(Br)ccc3nc2OC)cc(OCC)n1 (stereo not drawn) [Example 34, 1-(6-Bromo-2-methoxyquinolin-3-yl)-2-(2,6-diethoxypyridin-4-yl)-4-(dimethylamino)-1-(m-tolyl)butan-2-ol] | 0.04 (≈ 0.0657 µM) |
